Non-standard residues stand in square brackets, D forms with d. Residues, ends and D or L forms follow the SMILES beside them. *: point of attachment. 1Nal = N[C@@H](Cc1cccc2ccccc12)C(=O)O; Bn = c1ccc(C*)cc1
Legend:
NK2 receptor = target: T1, NK2 receptor (Bos taurus, UniProt P05363); test: Assay of affinity for receptor (3): binding inhibiting activity on NK2 receptor, 125I-neurokinin A, membrane fraction of bovine third stomach inner wall; settings: 125I-NKA, 25°C, 3 hours
T1 construct: The membrane fraction containing the receptor was prepared from the inner wall of the bovine third stomach; tissue Kyoto Chuo Chikusan Fukuseibutsu Oroshi Kyoukai (tissue); host or cells: inner wall of bovine third stomach, membrane fraction
T1 sequence (P05363 1-384): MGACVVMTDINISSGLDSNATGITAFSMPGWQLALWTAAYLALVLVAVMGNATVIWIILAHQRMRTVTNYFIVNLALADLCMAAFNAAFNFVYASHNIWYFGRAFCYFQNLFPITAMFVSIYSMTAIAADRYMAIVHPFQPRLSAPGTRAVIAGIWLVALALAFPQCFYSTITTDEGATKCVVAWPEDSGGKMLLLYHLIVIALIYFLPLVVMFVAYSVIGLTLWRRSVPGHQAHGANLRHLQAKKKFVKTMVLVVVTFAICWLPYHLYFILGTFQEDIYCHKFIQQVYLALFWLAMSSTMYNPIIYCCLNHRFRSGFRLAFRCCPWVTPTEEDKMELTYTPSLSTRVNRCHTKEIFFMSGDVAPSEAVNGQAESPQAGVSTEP
Experimental: Assay of Affinity for Receptor (3) ... Binding Inhibiting Activity on NK2 Receptor
The method of Paul L. M. Van Giersbergen et al. [Proc. Natl. Acad. Sci. U.S.A., 88, 1661 (1991) was modified for this assay. The membrane fraction containing the receptor was prepared from the inner wall of the bovine third stomach (purchased from Kyoto Chuo Chikusan Fukuseibutsu Oroshi Kyoukai).
The inner wall of the bovine third stomach stored at-80°C was cut to 1 cm X 1 cm or less, and disrupted in 3 liters/kg of 50 mM Tris-HCl buffer (pH 7.4) supplemented with 120 mM sodium chloride, 5 mM potassium chloride, 0.02% BSA and 5% sucrose, using a polytron homogenizer (Kinematika, Germany). Then, the disrupted product was centrifuged at 1,000 X g for 10 minutes. The supernatant was further centrifuged at 45,000 X g for 20 minutes. The precipitate was suspended in 200 ml of 50 mM Tris-HCl buffer (pH 7.4) supplemented with 300 mM potassium chloride, 10 mM ethylenediaminetetraacetic acid, 0.1 mM phenylmethylsulfonium fluoride and 0.02% BSA, and gently stirred under ice cooling for 60 minutes. The suspension was centrifuged at 45,000 X g for 20 minutes. The precipitate was washed with 200 ml of 50 mM Tris-HCl buffer (pH 7.4), and stored in the frozen state at -40°C as a receptor sample.
This sample was suspended in a reaction buffer solution [50 mM Tris-HCl buffer (pH 7.4), 0.02% bovine serum albumin and 4 mM manganese chloride] so as to give a protein concentration of 0.7 mg/ml, and 100 µl thereof was used for reaction. A test sample and ^125I-NKA (0.61 KBq, ^125I-neurokinin A, 81.4 TBq/mmol, Du Pont/NEN Research Products, U.S.A.) were also added, and reacted in 0.2 ml of the reaction buffer solution at 25°C for 3 hours. The reaction mixture was rapidly filtered through a glass filter (GF/B, Whatman, U.S.A.) using a cell harvester (Type 290PHD, Cambridge Technology Inc.) to terminate the reaction, and washed 3 times with 250 µl of 50 mM Tris-HCl buffer (pH 7.4) supplemented with 0.02% bovine serum albumin. The radioactivity left on the filter was measured with a gamma-ray counter. Results are shown in Table 1 as the binding inhibiting activity (IC50, unit: µM) on the NK2 receptor.

[1] = target: T2, endothelin receptor B (ETB) (Bos taurus, UniProt P28088); test: Assay of affinity for receptor (2): binding activity on ETB receptor *1, 125I-labeled endothelin-1, bovine brain membrane fraction; settings: 1 hour; for Binding Activity on ET Receptor (R. act.) ETB*1: specific activity, taking the binding activity of the compound of Example 8 on receptor B as 100, 25°C
T2 construct: A membrane fraction prepared from the bovine brain; from tissue; host or cells: bovine brain membrane fraction
T2 sequence (P28088 27-441): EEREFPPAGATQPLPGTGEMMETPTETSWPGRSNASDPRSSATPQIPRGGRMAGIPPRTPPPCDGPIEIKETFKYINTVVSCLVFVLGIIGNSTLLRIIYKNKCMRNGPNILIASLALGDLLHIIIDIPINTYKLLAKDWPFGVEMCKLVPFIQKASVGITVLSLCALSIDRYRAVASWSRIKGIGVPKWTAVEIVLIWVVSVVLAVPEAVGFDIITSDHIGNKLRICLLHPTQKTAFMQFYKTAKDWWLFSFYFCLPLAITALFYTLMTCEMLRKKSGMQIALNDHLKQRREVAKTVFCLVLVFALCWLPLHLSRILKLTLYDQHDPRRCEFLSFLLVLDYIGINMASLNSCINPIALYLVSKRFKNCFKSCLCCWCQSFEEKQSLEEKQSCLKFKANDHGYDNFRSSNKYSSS
Experimental: Assay of Affinity for Receptor (2) ... Binding Activity on ETB Receptor *1
A membrane fraction prepared from the bovine brain was diluted to 0.15 mg/ml by using a buffer solution for assay, and 100 µl of the resulting suspension of the membrane fraction was poured into each assay tube to use for assay. To this suspension of the membrane fraction was added 2 µl of 5 nM ^125I labeled endothelin-1 solution. Further, 3 µl of a test peptide solution was added thereto, followed by incubation at a temperature of 25°C for 1 hour. Then, the resulting suspension was diluted with 900 µl of the buffer solution for assay cooled with ice, and thereafter separated into a supernatant and a precipitate by centrifugation at 12,000 X g for 10 minutes. Cell membranes and an endothelin receptor B (ETB) embedded therein were contained in the precipitate, and radioactive iodine-labeled endothelin bound to the receptor was also recovered in the precipitate. Accordingly, the amount of radioactive iodine-labeled endothelin bound to the endothelin receptor B (ETB) was determined by measuring the amount of radioactive iodine contained in the precipitate with a gamma-ray counter. The numerical value of ETB shown in Table 1 is the value of specific activity, taking the binding activity of the compound of Example 8 on the receptor B as 100.

SMILES | IC50 (NK2 receptor) [µM] | IC50 ([1]; 25°C) [µM] | Binding Activity on ET Receptor (R. act.) ETB*1 [1]
CC(C)C[C@@H]1NC(=O)[C@@H](CC(C)C)NC(=O)[C@H](CC(=O)O)NC(=O)[C@H](Cc2c[nH]c3ccccc23)NC(=O)[C@@H](CC(=O)O)NC(=O)[C@@H](Cc2c[nH]c3ccccc23)NC1=O [Example 8, cyclo[-D-Asp-Trp-Asp-D-Leu-Leu-D-Trp-]] (cyclo(D[dL]L[dW][dD]W)) | 6.4 | 3 | 100
CC(C)C[C@@H]1NC(=O)[C@@H](CC(C)C)NC(=O)[C@H](CC(=O)O)NC(=O)[C@H](Cc2cccc3ccccc23)NC(=O)[C@@H](CC(=O)O)NC(=O)[C@@H](Cc2c[nH]c3ccccc23)NC1=O [Example 23, Cyclo[-D-Asp-Nal(1)-Asp-D-Leu-Leu-D-Trp-]] (cyclo([1Nal]D[dL]L[dW][dD])) | 2.1 |  | 11
CC(C)C[C@@H]1NC(=O)[C@@H](CC(C)C)NC(=O)[C@H](CCC(=O)O)NC(=O)[C@H](Cc2c[nH]c3ccccc23)NC(=O)[C@@H](CC(=O)O)NC(=O)[C@@H](Cc2c[nH]c3ccccc23)NC1=O [Example 34, Cyclo[-D-Asp-Trp-Glu-D-Leu-Leu-D-Trp-]] (cyclo(E[dL]L[dW][dD]W)) | 7.4 |  | 77
CC(C)C[C@@H]1NC(=O)[C@H](Cc2c[nH]c3ccccc23)NC(=O)[C@@H](CC(=O)O)NC(=O)[C@@H](Cc2c[nH]c3ccccc23)NC(=O)[C@H](CC(C)C)NC(=O)[C@@H](CC(C)C)NC1=O [Example 35, Cyclo[-D-Asp-Trp-Leu-D-Leu-Leu-D-Trp-]] (cyclo(L[dL]L[dW][dD]W)) | 0.052 |  | 52
CC(C)C[C@@H]1NC(=O)[C@@H](CC(C)C)NC(=O)[C@@H]2CCCN2C(=O)[C@H](Cc2c[nH]c3ccccc23)NC(=O)[C@@H](CC(=O)O)NC(=O)[C@@H](Cc2c[nH]c3ccccc23)NC1=O [Example 36, Cyclo[-D-Asp-Trp-Pro-D-Leu-Leu-D-Trp-]] (cyclo(L[dW][dD]WP[dL])) | 1.1 |  | 40
CC(C)C[C@@H]1NC(=O)[C@@H](CC(C)C)NC(=O)[C@H](CO)NC(=O)[C@H](Cc2c[nH]c3ccccc23)NC(=O)[C@@H](CC(=O)O)NC(=O)[C@@H](Cc2c[nH]c3ccccc23)NC1=O [Example 37, Cyclo[-D-Asp-Trp-Ser-D-Leu-Leu-D-Trp-]] (cyclo(L[dW][dD]WS[dL])) | 0.28 |  | 22
CC(C)C[C@@H]1NC(=O)[C@@H](CC(C)C)NC(=O)[C@H](COCc2ccccc2)NC(=O)[C@H](Cc2c[nH]c3ccccc23)NC(=O)[C@@H](CC(=O)O)NC(=O)[C@@H](Cc2c[nH]c3ccccc23)NC1=O [Example 38, Cyclo[-D-Asp-Trp-Ser(Bzl)-D-Leu-Leu-D-Trp-]] (cyclo(L[dW][dD]WS(Bn)[dL])) | 0.07 |  | 66
